Source: US10138232B2, “Naphthyridinedione derivatives” (NOVARTIS AG, priority 2014, dated 2018)

Tested on: CFTR-Y122X (GFP-CFTR-Y122X-Renilla construct) in Hek293 cell lines
Assay: CFTR-Y122X assay (dual reporter readthrough, Renilla luminescence)
Format: cell-based
Conditions: Homo sapiens, compounds incubated 24 h, tested up to 100 μM; for AC50: nonsense mutation suppression in the CFTR-Y122X assay; for Emax: nonsense mutation suppression, 100% activity = 14 mM paromomycin, read-out: Amax
Excerpt: In particular, compounds of formula (I), (I′), (Ia), (Ia′) or (Ib) I act as nonsense mutation suppressors on frequent PTCs, e.g. on Y122X in the mRNA of the cystic fibrosis conductance regulator protein (CFTR). This can be determined in vitro, for example, using cell lines expressing GFP-CFTR-Y122X-Renilla constructs as described herein.
Activity of compounds of the present invention was examined in recombinant, dual reporter isogenic Hek293 cell lines (“CFTR-Y122X assay”). The engineered reporter constructs contained the 18 bp sequence strech corresponding to a common Y122X PTC mutation in CFTR class I mutant patients (see Sermet-Gaudelus, BMC Medicine, 2007, 5(5)). Instead of a tyrosine (Y) in position 122 of the CFTR protein a TGA stop codon interrupts the open reading frame (Y122X) of the corresponding mRNA. This TGA stop codon triplet (followed by the pyrimidine base cytosine) is permissive to aminoglycoside mediated translational readthrough which served as positive control for high throughput screening. A corresponding TAA stop codon variant and a wildtype non mutated construct was used for confirmation and counter screening. The CFTR sequence was sandwiched between an eGFP reporter, and a triple myc tag sequence fused to a full length Renilla reporter. All sequences, including an intron containing one positioned pre-eGFP (b-globin intron) were cloned in frame. The corresponding expression constructs were stably expressed in the isogenic HEK-R4 cell host (Invitrogen Incorp.) and selected by blasticidin resistance. The isogenic integration of the construct minimizes gene dose effects and improves assay reproducibility. Stably integrated single cell derived clones were selected and characterized for aminoglycoside mediated readthrough. […] Readthrough of Y122X accumulates an intracellular localized fusion protein approximately 65.5 kDa in size as controlled by western blot analysis and immunofluorescence using an anti-renilla antibody. The eGFP reporter pre-PTC mutation serves as visual control for genetic stability of the screening clones and minimizes protein degradation of small fusion protein amounts. In the assay, compound concentration was 10 μM. In miniaturized 1536 well format 2000 cells were dispensed in 4 μl/well and incubated for 24 h at 37° C., 5% CO2. 40 nl compounds were placed on the cells with control wells containing 1 ul Paramomycin and 14.4 mM final concentration. Compounds were incubated for 24 h. Renilla Glo substrate (2.5 ul) was added and plates were centrifuged and processed for luminescence measurement using various readers. Activity calculation was done using the equation: A1(%)=100*(S−NC)/(AC−NC) where AC, NC and S correspond to active controls (injection of Stimulation buffer=100% stimulation), neutral controls (buffer injection which Iloprost EC10) and screening samples (S). NC corresponds to 0% activity whereas AC is 100% activity (14 mM paromomycin). False positive artefacts were removed in confirmation and validation screening using the same assay format followed by counterscreening using the respective wildtype construct (w/o PTC mutation) cell model. Compounds were tested up to 100 μM compound concentration.

| Structure (SMILES) | AC50 [µM] | Emax [%] |
| --- | --- | --- |
| Cc1[nH]c2cc(C3CCC3)n(-c3ccccc3)c(=O)c2c(=O)c1C [Example 1.27, 7-cyclobutyl-2,3-dimethyl-6-phenyl-1,6-naphthyridine-4,5(1H,6H)-dione] | 3 | 206 |
| CC(C)c1c(Br)c2c(c(=O)c3ccccc3n2C)c(=O)n1-c1ccccc1 [Example 3.3, 4-bromo-3-isopropyl-5-methyl-2-phenylbenzo[b][1,6]naphthyridine-1,10(2H,5H)-dione] | 18.8 | 122 |
| O=c1c2cccc3c2n(c2cc(C4CCC4)n(-c4ccccc4)c(=O)c12)CC3 [Example 1.45, 9-cyclobutyl-8-phenyl-1H-indolo[1,7-ab][1,6]naphthyridine-6,7(2H,8H)-dione] | 0.6 | 252 |
| CC(C)c1cc2c(c(=O)c3ccccc3n2C)c(=O)n1-c1ccccc1 [Example 1.4, 3-isopropyl-5-methyl-2-phenylbenzo[b][1,6]naphthyridine-1,10(2H,5H)-dione] | 3.2 | 324 |
| O=c1c2c([nH]c3cc(C4CCC4)n(-c4ccccc4)c(=O)c13)CCCC2 [Example 1.30, 3-cyclobutyl-2-phenyl-6,7,8,9-tetrahydrobenzo[b][1,6]naphthyridine-1,10(2H,5H)-dione] | 0.7 | 324 |
| Cc1cc2c(=O)c3c(=O)n(-c4ccccc4)c(C(C)C)cc3n(C)c2s1 [Example 1.15, 7-isopropyl-2,9-dimethyl-6-phenylthieno[2,3-b][1,6]naphthyridine-4,5(6H,9H)-dione] | 5.5 | 224 |
| Cc1ccc2[nH]c3cc(C4CCC4)n(-c4ccccc4)c(=O)c3c(=O)c2c1 [Example 1.41, 3-cyclobutyl-8-methyl-2-phenylbenzo[b][1,6]naphthyridine-1,10(2H,5H)-dione] | 0.5 | 223 |
| COc1cccc2c(=O)c3c(=O)n(-c4ccccc4)c(C4CCC4)cc3[nH]c12 [Example 1.48, 3-cyclobutyl-6-methoxy-2-phenylbenzo[b][1,6]naphthyridine-1,10(2H,5H)-dione] | 1.8 | 227 |
| Cc1ccc2c(c1)c(=O)c1c(=O)n(-c3ccccc3)c(C(C)C)cc1n2C [Example 1.10, 3-isopropyl-5,8-dimethyl-2-phenylbenzo[b][1,6]naphthyridine-1,10(2H,5H)-dione] | 7.3 | 409 |
| O=c1c2ccsc2[nH]c2cc(C3CCC3)n(-c3ccccc3)c(=O)c12 [Example 1.32, 7-cyclobutyl-6-phenylthieno[2,3-b][1,6]naphthyridine-4,5(6H,9H)-dione] | 4.2 | 247 |
| O=c1c2ccccc2[nH]c2cc(C3CCC3)n(N3CCCC3)c(=O)c12 [Example 2.7, 3-cyclobutyl-2-(pyrrolidin-1-yl)benzo[b][1,6]naphthyridine-1,10(2H,5H)-dione] | 0.7 | 197 |
| O=c1c2cc(F)ccc2[nH]c2cc(C3CCC3)n(-c3ccccc3)c(=O)c12 [Example 1.44, 3-cyclobutyl-8-fluoro-2-phenylbenzo[b][1,6]naphthyridine-1,10(2H,5H)-dione] | 0.4 | 178 |
| CC(C)c1cc2c(c(=O)c3ccccc3n2C)c(=O)n1N1CCCCC1 [Example 2.14, 3-isopropyl-5-methyl-2-(piperidin-1-yl)benzo[b][1,6]naphthyridine-1,10(2H,5H)-dione] | 1.7 | 271 |
| Cc1cc2c(=O)c3c(=O)n(-c4ccccc4)c(C(C)C)cc3[nH]c2s1 [Example 1.14, 7-isopropyl-2-methyl-6-phenylthieno[2,3-b][1,6]naphthyridine-4,5(6H,9H)-dione] | – | 35 |
| CC(C)c1cc2c(c(=O)c3ccccc3n2C)c(=O)n1-n1cccc1 [Example 2.18, 3-isopropyl-5-methyl-2-(1H-pyrrol-1-yl)benzo[b][1,6]naphthyridine-1,10(2H,5H)-dione] | 17.6 | 75 |
